Assay results reported in article PMC7070694, “Identification of New Peptides from Fermented Milk Showing Antioxidant Properties: Mechanism of Action” (Antioxidants, 2020).
Peptide text beside a SMILES is read from it.

Tests used:
[1] = system: Caco-2 cell monolayer; experiment: Transepithelial transport through Caco-2 cell monolayers (Transwell); type: in vitro ADME; details: Caco-2 monolayer on Transwell, 21 days, TEER > 1100 Ω × cm^2, 75 µg peptide in 0.75 mL HBSS apical, 37 °C, RP-HPLC UV 220 nm, mean ± SD, n. d. = not detected with RP-HPLC; for RP-HPLC Estimation AP (%): 120 min after 30 min equilibration, apical compartment, % of total peptide added; for RP-HPLC Estimation BL (%): A-B, 120 min, basolateral compartment, % of initial peptide added apically
Experimental: Caco-2 cells were obtained from DISCOG (University of Padova, Padova, Italy). The cells cultured in DMEM (high glucose) supplemented with 10% FBS, were used between 35 and 60 passages. In order to perform transepithelial transport, 8 × 10^4 cells were seeded on Transwell^© cell culture inserts (0.4 µm pore sizes, 12 mm diameter, 1.12 cm^2 grown surface; Corning Life Sciences, Tewksbury, MA, USA). Cells were grown, differentiated for 21 days and the monolayer integrity was estimated by transepithelial electrical resistance (TEER) (Millicell® ERS-2 volt-ohmmeter, EDM Millipore, Darmstadt, Germany) showing values higher than 1100 Ω × cm^2.
The intestinal barrier crossing capacity of the fractions or synthetic peptides through Caco-2 cells monolayer was evaluated using Transwell® insert model according to Tonolo et al.. Briefly, after 21 days of culturing, Caco-2 cells differentiated forming a monolayer that delimited an upper part (apical compartment) and lower part (basolateral compartment). The monolayer was rinsed three times with Hank’s balanced salt solution (HBSS) and 10 mM D-glucose and equilibrated for 30 min at 37 °C. After, cells were incubated in the presence of 0.75 mL HBSS containing 150 µg fraction or 75 µg peptide in the apical chamber at 37 °C for 120 min. Samples collected from both compartments (apical and basolateral) at different times were centrifuged at 11,600× g, filtered with 0.45 µm filter, frozen and lyophilized. Subsequently, the obtained samples were dissolved in 100 µL of 0.1% TFA aqueous solution and evaluated by RP-HPLC and Matrix assisted laser desorption/ionization- time of flight/time of flight mass spectrometry (MALDI-TOF/TOF MS).
The apical and basolateral compartments were evaluated in RP-HPLC using a column Onyx Monolithic C18 100 mm × 4.6 mm, LC column (Phenomenex, Torrance, CA, USA) with a Waters 2695 Separation Module (Milfold, MA, USA) with a Waters 996 Photodiode Array Detector. Separations were performed with a linear gradient from 0–60% ACN in the presence of 0.1% TFA over 20 min at a constant flow rate of 2 mL/min monitoring the peaks by UV detection (λ = 220 nm).
Subsequently, the obtained fractions were analysed with a MALDI-TOF/TOF 4800 mass spectrometer (AB Sciex, Framingham, MA, USA). After an initial full MS scan, enlargements on the MS signals of interest were acquired. For the basolateral fractions, the samples, after lyophilisation, were dissolved in 50 µL of 25% ACN and 0.1% TFA. The analysis was then performed on 2 µL of these solutions mixed with 2 µL of peptide MALDI matrix α-cyano-4-hydroxycynnamic acid (10 mg/mL aqueous 70% acetonitrile/0.1% TFA). The following analytical conditions were set for MALDI-TOF spectra acquisition: positive ion reflector mode, initial mass range 500–3500 Da (the mass range was then adapted for each enlargement), variable laser intensity (3000–3800), shots/sub-spectrum 50, total shots/spectrum 1500 and accelerating voltage of 20 kV. Final data analysis and fragments identification were done on Data Explorer software (AB Sciex, Framingham, MA, USA), utilizing external mass calibration performed with mass peptide standards (Sigma-Aldrich, St Louis, MO, USA).
In order to evaluate the intestinal crossing capacity of the four peptides, Transwell® insert model peptide absorption, was performed. […] After 10 min and 120 min, apical and basolateral compartments were collected and analyzed by RP-HPLC and mass spectrometry.

[2] = MTT cell viability (cytotoxicity); type: cell-based; details: human, Caco-2 cells (1 × 10^4), synthetic peptides 0.05 mg/mL, no TbOOH, mean ± SD of at least three experiments, read-out: Percentage of Cell Viability, None (c)

Structure (SMILES) | RP-HPLC Estimation AP (%) [1] [%] | RP-HPLC Estimation BL (%) [1] [%] | viability at 24 h, 50 µg/mL [2] [%]
CSCC[C@H](NC(=O)[C@@H](NC(=O)[C@@H](NC(=O)[C@@H]1CCCN1C(=O)[C@H](CCC(N)=O)NC(=O)[C@H](C)NC(=O)[C@H](CCC(N)=O)NC(=O)[C@H](CS)NC(=O)[C@H](CO)NC(=O)[C@H](CCCCN)NC(=O)[C@H](C)N)[C@@H](C)O)[C@@H](C)O)C(=O)O [A-11-M] (H-AKSCQAQPTTM-OH) | 44.96 ± 9.09 | 0.16 ± 0.02 | –
CC[C@H](C)[C@H](NC(=O)[C@@H]1CCCN1C(=O)[C@H](CC(N)=O)NC(=O)[C@@H]1CCCN1C(=O)[C@@H](NC(=O)[C@H](CC(=O)O)NC(=O)[C@H](CO)NC(=O)[C@H](Cc1ccccc1)NC(=O)[C@H](CO)NC(=O)[C@@H]1CCCN1C(=O)[C@H](C)N)[C@@H](C)CC)C(=O)NCC(=O)N[C@@H](CO)C(=O)N[C@@H](CCC(=O)O)C(=O)N[C@@H](CC(N)=O)C(=O)N[C@@H](CO)C(=O)O [A-16-S] (H-APSFSDIPNPIGSENS-OH) | 3.22 ± 0.00 | – | –
CC[C@H](C)[C@H](NC(=O)[C@@H]1CCCN1C(=O)[C@H](CC(N)=O)NC(=O)[C@@H]1CCCN1C(=O)[C@@H](NC(=O)[C@H](CC(=O)O)NC(=O)[C@H](CO)NC(=O)[C@H](Cc1ccccc1)NC(=O)[C@H](CO)NC(=O)[C@@H]1CCCN1C(=O)[C@H](C)N)[C@@H](C)CC)C(=O)NCC(=O)N[C@@H](CO)C(=O)N[C@@H](CCC(=O)O)C(=O)N[C@@H](CC(N)=O)C(=O)N[C@@H](CO)C(=O)N[C@@H](CCC(=O)O)C(=O)O [A-17-E] (H-APSFSDIPNPIGSENSE-OH) | 68.4 ± 4.6 | 0.05 ± 0.03 | 108 ± 13.2
CC[C@H](C)[C@H](NC(=O)[C@H](CCCCN)NC(=O)[C@H](CC(=O)O)NC(=O)[C@H](CCC(N)=O)NC(=O)[C@H](CC(C)C)NC(=O)[C@H](CCC(=O)O)NC(=O)[C@@H](N)CC(=O)O)C(=O)N[C@@H](Cc1c[nH]cn1)C(=O)N1CCC[C@H]1C(=O)N[C@@H](Cc1ccccc1)C(=O)O [D-10-F] (H-DELQDKIHPF-OH) | 4.17 ± 0.27 | – | –
CC[C@H](C)[C@H](NC(=O)[C@H](CCCCN)NC(=O)[C@H](CC(=O)O)NC(=O)[C@H](CCC(N)=O)NC(=O)[C@H](CC(C)C)NC(=O)[C@H](CCC(=O)O)NC(=O)[C@H](CC(=O)O)NC(=O)[C@@H](N)CCC(=O)O)C(=O)N[C@@H](Cc1c[nH]cn1)C(=O)N1CCC[C@H]1C(=O)N[C@@H](Cc1ccccc1)C(=O)O [E-11-F] (H-EDELQDKIHPF-OH) | 88.28 ± 5.89 | 0.21 ± 0.01 | 112 ± 13.5
CC[C@H](C)[C@H](NC(=O)[C@@H]1CCCN1C(=O)[C@H](CC(N)=O)NC(=O)[C@@H]1CCCN1C(=O)[C@@H](NC(=O)[C@H](CC(=O)O)NC(=O)[C@H](CO)NC(=O)[C@@H](N)Cc1ccccc1)[C@@H](C)CC)C(=O)NCC(=O)N[C@@H](CO)C(=O)N[C@@H](CCC(=O)O)C(=O)N[C@@H](CC(N)=O)C(=O)N[C@@H](CO)C(=O)N[C@@H](CCC(=O)O)C(=O)O [F-14-E] (H-FSDIPNPIGSENSE-OH) | 3.07 ± 0.60 | – | –
CC[C@H](C)[C@H](NC(=O)[C@@H]1CCCN1C(=O)CN)C(=O)N[C@H](C(=O)N[C@@H](CC(C)C)C(=O)N[C@@H](CC(N)=O)C(=O)N1CCC[C@H]1C(=O)N[C@@H](Cc1c[nH]c2ccccc12)C(=O)N[C@@H](CC(=O)O)C(=O)N[C@@H](CCC(N)=O)C(=O)N[C@H](C(=O)N[C@@H](CCCCN)C(=O)N[C@@H](CCCNC(=N)N)C(=O)O)C(C)C)C(C)C [G-13-R] (H-GPIVLNPWDQVKR-OH) | 3.19 ± 0.27 | – | –
CC[C@H](C)[C@H](N)C(=O)N[C@H](C(=O)N[C@@H](CC(C)C)C(=O)N[C@@H](CC(N)=O)C(=O)N1CCC[C@H]1C(=O)N[C@@H](Cc1c[nH]c2ccccc12)C(=O)N[C@@H](CC(=O)O)C(=O)N[C@@H](CCC(N)=O)C(=O)N[C@H](C(=O)N[C@@H](CCCCN)C(=O)N[C@@H](CCCNC(=N)N)C(=O)O)C(C)C)C(C)C [I-11-R] (H-IVLNPWDQVKR-OH) | 1.47 ± 0.19 | – | –
CC(C)[C@H](NC(=O)[C@H](CCC(N)=O)NC(=O)[C@H](CC(=O)O)NC(=O)[C@H](Cc1c[nH]c2ccccc12)NC(=O)[C@@H]1CCCN1C(=O)[C@@H](N)CC(N)=O)C(=O)N[C@@H](CCCCN)C(=O)N[C@@H](CCCNC(=N)N)C(=O)O [N-8-R] (H-NPWDQVKR-OH) | 0.55 ± 0.15 | – | –
CSCC[C@H](NC(=O)[C@@H](NC(=O)[C@@H](NC(=O)[C@@H]1CCCN1C(=O)[C@H](CCC(N)=O)NC(=O)[C@H](C)NC(=O)[C@H](CCC(N)=O)NC(=O)[C@H](CS)NC(=O)[C@H](CO)NC(=O)[C@H](CCCCN)NC(=O)[C@H](C)NC(=O)[C@@H]1CCCN1C(=O)[C@@H](NC(=O)[C@@H](NC(=O)[C@@H](N)CC(N)=O)[C@@H](C)O)C(C)C)[C@@H](C)O)[C@@H](C)O)C(=O)O [N-15-M] (H-NTVPAKSCQAQPTTM-OH) | 60.76 ± 8.83 | 0.13 ± 0.04 | 108 ± 5.96
CC[C@H](C)[C@H](NC(=O)[C@@H]1CCCN1C(=O)CNC(=O)[C@@H](N)CCC(N)=O)C(=O)N[C@H](C(=O)N[C@@H](CC(C)C)C(=O)N[C@@H](CC(N)=O)C(=O)N1CCC[C@H]1C(=O)N[C@@H](Cc1c[nH]c2ccccc12)C(=O)N[C@@H](CC(=O)O)C(=O)N[C@@H](CCC(N)=O)C(=O)O)C(C)C [Q-11-Q] (H-QGPIVLNPWDQ-OH) | – | 0.11 ± 0.01 | –
CC[C@H](C)[C@H](NC(=O)[C@@H]1CCCN1C(=O)CNC(=O)[C@@H](N)CCC(N)=O)C(=O)N[C@H](C(=O)N[C@@H](CC(C)C)C(=O)N[C@@H](CC(N)=O)C(=O)N1CCC[C@H]1C(=O)N[C@@H](Cc1c[nH]c2ccccc12)C(=O)N[C@@H](CC(=O)O)C(=O)N[C@@H](CCC(N)=O)C(=O)N[C@H](C(=O)N[C@@H](CCCCN)C(=O)O)C(C)C)C(C)C [Q-13-K] (H-QGPIVLNPWDQVK-OH) | – | 0.07 ± 0.05 | –
CSCC[C@H](NC(=O)[C@@H](NC(=O)[C@@H](NC(=O)[C@@H]1CCCN1C(=O)[C@H](CCC(N)=O)NC(=O)[C@H](C)NC(=O)[C@H](CCC(N)=O)NC(=O)[C@H](CS)NC(=O)[C@@H](N)CO)[C@@H](C)O)[C@@H](C)O)C(=O)O [S-9-M] (H-SCQAQPTTM-OH) | – | 0.12 ± 0.03 | –
CC[C@H](C)[C@H](NC(=O)[C@@H]1CCCN1C(=O)[C@H](CC(N)=O)NC(=O)[C@@H]1CCCN1C(=O)[C@@H](NC(=O)[C@H](CC(=O)O)NC(=O)[C@H](CO)NC(=O)[C@H](Cc1ccccc1)NC(=O)[C@@H](N)CO)[C@@H](C)CC)C(=O)NCC(=O)N[C@@H](CO)C(=O)N[C@@H](CCC(=O)O)C(=O)N[C@@H](CC(N)=O)C(=O)N[C@@H](CO)C(=O)N[C@@H](CCC(=O)O)C(=O)O [S-15-E] (H-SFSDIPNPIGSENSE-OH) | 8.97 ± 0.53 | 0.30 ± 0.07 | –
CSCC[C@H](NC(=O)[C@@H](NC(=O)[C@@H](NC(=O)[C@@H]1CCCN1C(=O)[C@H](CCC(N)=O)NC(=O)[C@H](C)NC(=O)[C@H](CCC(N)=O)NC(=O)[C@H](CS)NC(=O)[C@H](CO)NC(=O)[C@H](CCCCN)NC(=O)[C@H](C)NC(=O)[C@@H]1CCCN1C(=O)[C@@H](N)C(C)C)[C@@H](C)O)[C@@H](C)O)C(=O)O [V-13-M] (H-VPAKSCQAQPTTM-OH) | 2.21 ± 0.53 | – | –
